Reference: ChEMBL document CHEMBL3627608, “Crystal structures of human RIP2 kinase catalytic domain complexed with ATP-competitive inhibitors: Foundations for understanding inhibitor selectivity” (Bioorg Med Chem, 2015)

Tests used:
[1] = molecular target: T1, Serine/threonine-protein kinase ULK1 (Homo sapiens) (UniProt O75385); assay: Inhibition of ULK1 (unknown origin) at 10 uM after 120 mins P33 radiolabeled kinase activity assay
T1 sequence (whole entry): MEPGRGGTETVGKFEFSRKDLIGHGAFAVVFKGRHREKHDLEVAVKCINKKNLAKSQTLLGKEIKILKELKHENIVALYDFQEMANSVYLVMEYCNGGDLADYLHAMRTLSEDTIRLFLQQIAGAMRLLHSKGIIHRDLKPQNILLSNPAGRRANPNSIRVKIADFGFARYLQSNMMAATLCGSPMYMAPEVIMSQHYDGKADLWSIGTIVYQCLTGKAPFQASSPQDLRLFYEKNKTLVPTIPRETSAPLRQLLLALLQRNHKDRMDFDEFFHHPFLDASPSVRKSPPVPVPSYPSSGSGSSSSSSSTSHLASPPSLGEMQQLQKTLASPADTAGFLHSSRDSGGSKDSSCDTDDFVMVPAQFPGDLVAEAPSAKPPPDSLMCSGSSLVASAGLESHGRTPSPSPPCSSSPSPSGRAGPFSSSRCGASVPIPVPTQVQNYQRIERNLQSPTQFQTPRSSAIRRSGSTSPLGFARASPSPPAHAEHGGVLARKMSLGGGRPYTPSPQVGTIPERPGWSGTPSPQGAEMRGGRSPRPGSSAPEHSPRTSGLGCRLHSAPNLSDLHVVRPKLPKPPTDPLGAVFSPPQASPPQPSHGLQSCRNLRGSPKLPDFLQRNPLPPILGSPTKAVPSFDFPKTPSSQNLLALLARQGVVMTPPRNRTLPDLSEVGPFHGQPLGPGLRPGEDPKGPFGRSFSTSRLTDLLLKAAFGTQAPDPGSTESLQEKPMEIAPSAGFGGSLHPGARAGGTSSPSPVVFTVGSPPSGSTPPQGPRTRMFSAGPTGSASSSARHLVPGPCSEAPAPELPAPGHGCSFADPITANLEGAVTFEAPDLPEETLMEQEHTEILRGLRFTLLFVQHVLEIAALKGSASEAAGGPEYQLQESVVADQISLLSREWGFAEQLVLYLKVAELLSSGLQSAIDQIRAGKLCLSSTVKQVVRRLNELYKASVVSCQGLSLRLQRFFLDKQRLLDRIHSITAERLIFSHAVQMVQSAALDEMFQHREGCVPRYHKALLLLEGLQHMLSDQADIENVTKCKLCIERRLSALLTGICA

[2] = molecular target: T2, Mitogen-activated protein kinase kinase kinase 7 (Homo sapiens) (UniProt O43318); assay: Inhibition of TAK1 (unknown origin) at 10 uM after 120 mins P33 radiolabeled kinase activity assay
T2 sequence (whole entry): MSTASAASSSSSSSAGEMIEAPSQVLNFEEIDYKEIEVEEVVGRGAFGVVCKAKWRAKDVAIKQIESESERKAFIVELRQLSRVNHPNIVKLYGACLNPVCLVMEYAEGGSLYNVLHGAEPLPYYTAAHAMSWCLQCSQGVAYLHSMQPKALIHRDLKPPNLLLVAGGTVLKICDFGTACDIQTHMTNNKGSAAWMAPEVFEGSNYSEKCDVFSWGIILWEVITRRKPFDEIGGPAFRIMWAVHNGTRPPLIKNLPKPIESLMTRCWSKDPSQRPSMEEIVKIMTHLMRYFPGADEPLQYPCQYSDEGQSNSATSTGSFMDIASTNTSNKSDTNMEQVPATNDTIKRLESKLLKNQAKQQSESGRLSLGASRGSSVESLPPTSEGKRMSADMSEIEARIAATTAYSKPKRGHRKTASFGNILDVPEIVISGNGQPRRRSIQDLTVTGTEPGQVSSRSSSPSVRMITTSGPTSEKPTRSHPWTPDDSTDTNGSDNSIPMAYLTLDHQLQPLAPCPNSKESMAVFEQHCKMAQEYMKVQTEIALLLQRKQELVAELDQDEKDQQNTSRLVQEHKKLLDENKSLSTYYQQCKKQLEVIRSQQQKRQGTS

[3] = molecular target: Ribosomal protein S6 kinase alpha-6 (Homo sapiens) (UniProt Q9UK32); assay: Inhibition of RSK4 (unknown origin) at 10 uM after 120 mins P33 radiolabeled kinase activity assay
Ribosomal protein S6 kinase alpha-6 (Homo sapiens), sequence (Q9UK32 whole entry): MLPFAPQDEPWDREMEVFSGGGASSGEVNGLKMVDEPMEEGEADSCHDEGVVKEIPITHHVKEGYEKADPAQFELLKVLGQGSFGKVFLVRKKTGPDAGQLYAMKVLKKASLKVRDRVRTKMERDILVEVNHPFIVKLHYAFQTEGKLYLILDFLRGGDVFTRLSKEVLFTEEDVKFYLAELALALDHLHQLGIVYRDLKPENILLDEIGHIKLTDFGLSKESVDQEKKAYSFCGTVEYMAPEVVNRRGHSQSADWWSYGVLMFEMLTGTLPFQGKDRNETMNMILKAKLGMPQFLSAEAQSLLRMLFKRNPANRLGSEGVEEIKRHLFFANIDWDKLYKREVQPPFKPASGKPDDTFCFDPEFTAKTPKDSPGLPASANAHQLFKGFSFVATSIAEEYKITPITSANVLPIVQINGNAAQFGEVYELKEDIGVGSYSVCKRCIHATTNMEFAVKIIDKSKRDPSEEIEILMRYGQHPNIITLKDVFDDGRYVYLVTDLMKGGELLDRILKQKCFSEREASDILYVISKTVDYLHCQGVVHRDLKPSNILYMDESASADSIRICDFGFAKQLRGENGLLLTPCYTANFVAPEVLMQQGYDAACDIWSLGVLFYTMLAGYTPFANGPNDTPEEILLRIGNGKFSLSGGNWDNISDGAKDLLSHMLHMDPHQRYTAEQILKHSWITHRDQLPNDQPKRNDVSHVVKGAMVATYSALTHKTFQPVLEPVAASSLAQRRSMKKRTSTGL

[4] = molecular target: Serine/threonine-protein kinase SIK2 (Homo sapiens) (UniProt Q9H0K1); assay: Inhibition of SIK2 (unknown origin) at 10 uM after 120 mins P33 radiolabeled kinase activity assay
Serine/threonine-protein kinase SIK2 (Homo sapiens), sequence (Q9H0K1 whole entry, looked up): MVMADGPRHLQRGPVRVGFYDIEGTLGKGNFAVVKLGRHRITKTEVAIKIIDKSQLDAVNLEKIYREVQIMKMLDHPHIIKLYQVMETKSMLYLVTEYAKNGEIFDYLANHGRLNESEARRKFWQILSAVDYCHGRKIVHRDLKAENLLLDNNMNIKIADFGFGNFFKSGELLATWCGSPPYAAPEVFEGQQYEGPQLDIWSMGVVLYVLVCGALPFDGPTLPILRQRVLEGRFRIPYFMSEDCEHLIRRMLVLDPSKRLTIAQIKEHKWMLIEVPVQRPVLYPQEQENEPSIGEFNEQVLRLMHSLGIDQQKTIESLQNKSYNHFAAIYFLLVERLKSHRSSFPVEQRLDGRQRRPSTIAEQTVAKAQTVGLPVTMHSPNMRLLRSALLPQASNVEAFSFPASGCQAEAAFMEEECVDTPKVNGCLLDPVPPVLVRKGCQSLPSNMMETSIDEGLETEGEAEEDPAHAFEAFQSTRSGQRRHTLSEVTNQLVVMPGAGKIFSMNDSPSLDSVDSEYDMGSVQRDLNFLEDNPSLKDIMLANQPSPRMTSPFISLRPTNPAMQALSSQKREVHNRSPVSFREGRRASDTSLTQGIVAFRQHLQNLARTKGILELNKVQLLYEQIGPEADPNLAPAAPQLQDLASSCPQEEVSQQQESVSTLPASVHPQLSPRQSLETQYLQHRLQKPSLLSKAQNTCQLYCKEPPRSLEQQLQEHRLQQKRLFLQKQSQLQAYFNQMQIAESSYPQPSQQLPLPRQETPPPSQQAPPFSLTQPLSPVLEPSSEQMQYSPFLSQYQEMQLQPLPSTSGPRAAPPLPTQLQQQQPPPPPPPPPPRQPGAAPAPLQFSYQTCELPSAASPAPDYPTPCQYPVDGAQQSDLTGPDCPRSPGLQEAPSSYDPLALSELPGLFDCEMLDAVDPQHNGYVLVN

[5] = molecular target: Ribosomal protein S6 kinase alpha-5 (Homo sapiens) (UniProt O75582); assay: Inhibition of MSK1 (unknown origin) at 10 uM after 120 mins P33 radiolabeled kinase activity assay
Ribosomal protein S6 kinase alpha-5 (Homo sapiens), sequence (O75582 whole entry, looked up): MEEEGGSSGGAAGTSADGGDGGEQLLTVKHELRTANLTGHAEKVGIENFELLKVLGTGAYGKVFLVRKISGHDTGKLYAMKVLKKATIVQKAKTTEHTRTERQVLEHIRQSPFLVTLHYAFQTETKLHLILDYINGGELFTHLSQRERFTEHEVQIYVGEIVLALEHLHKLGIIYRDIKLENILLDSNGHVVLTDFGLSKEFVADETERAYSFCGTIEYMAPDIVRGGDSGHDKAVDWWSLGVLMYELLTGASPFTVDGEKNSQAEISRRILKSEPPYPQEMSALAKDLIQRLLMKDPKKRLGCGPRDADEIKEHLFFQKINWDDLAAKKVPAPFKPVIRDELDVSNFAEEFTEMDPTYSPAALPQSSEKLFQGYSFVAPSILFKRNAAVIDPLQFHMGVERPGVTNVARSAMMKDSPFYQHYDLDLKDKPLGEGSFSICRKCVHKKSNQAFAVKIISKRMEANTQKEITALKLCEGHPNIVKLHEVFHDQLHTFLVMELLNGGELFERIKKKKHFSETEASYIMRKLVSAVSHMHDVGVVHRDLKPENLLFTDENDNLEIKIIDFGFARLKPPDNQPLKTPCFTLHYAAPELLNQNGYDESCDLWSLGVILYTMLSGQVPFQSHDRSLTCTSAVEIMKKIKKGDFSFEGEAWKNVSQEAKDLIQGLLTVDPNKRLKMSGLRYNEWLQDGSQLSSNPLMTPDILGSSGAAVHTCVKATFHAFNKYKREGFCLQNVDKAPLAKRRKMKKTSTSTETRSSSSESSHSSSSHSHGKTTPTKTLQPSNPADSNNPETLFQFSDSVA

[6] = molecular target: Rho-associated protein kinase 2 (Homo sapiens) (UniProt O75116); assay: Inhibition of ROCK2 (unknown origin) at 10 uM after 120 mins P33 radiolabeled kinase activity assay
Rho-associated protein kinase 2 (Homo sapiens), sequence (O75116 whole entry, looked up): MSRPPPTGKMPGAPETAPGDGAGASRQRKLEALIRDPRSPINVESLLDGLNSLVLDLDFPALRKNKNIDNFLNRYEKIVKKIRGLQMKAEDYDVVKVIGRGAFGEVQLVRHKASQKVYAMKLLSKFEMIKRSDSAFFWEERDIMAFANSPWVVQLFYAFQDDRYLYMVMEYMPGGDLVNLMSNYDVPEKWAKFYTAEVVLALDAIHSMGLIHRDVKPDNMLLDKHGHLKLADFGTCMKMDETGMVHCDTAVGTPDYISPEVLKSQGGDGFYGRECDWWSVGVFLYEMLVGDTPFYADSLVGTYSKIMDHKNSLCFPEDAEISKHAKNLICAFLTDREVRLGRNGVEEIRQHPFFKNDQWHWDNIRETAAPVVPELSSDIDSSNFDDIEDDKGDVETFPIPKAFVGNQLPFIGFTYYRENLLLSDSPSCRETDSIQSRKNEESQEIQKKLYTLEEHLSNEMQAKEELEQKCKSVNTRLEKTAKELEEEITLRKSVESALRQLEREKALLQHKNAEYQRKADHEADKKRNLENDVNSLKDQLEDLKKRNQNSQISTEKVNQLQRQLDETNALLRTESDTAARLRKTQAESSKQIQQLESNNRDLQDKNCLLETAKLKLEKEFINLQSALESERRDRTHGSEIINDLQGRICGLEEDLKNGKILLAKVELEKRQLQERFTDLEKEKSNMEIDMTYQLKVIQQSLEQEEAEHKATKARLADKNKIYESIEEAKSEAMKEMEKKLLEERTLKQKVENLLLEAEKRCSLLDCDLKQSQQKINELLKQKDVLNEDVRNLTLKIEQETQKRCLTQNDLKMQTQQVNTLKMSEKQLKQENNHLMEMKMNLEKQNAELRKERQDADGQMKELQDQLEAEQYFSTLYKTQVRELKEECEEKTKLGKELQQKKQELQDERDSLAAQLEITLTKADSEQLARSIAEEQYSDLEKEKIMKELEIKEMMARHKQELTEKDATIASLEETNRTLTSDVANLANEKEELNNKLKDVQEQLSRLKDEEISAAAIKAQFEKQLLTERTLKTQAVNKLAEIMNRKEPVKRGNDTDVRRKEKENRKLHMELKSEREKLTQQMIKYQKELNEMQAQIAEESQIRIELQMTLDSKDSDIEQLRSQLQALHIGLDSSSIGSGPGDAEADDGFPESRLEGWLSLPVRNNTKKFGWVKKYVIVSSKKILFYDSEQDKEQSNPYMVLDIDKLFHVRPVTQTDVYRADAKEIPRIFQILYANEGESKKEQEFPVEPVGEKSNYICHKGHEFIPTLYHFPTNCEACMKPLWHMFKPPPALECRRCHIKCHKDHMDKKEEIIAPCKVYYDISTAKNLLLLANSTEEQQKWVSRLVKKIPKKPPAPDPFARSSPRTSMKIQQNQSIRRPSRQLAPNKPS

[7] = molecular target: T3, Serine/threonine-protein kinase VRK1 (Homo sapiens) (UniProt Q99986); assay: Inhibition of VRK1 (unknown origin) at 10 uM after 120 mins P33 radiolabeled kinase activity assay
T3 sequence (whole entry): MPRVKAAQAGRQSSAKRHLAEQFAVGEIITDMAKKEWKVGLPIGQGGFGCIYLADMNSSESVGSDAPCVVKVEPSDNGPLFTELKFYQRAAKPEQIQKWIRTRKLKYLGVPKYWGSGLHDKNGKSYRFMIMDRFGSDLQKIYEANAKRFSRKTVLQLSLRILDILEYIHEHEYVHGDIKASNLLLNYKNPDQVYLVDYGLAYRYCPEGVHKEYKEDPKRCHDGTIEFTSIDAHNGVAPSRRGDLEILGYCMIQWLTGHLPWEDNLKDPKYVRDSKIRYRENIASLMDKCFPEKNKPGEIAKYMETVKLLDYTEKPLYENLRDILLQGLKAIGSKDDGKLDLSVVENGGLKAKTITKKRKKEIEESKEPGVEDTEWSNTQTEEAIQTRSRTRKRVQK

inhibition [1] [%] | inhibition [2] [%] | inhibition [3] [%] | inhibition [4] [%] | inhibition [5] [%] | inhibition [6] [%] | inhibition [7] [%] | Structure (SMILES)
52.4 | 83 | 66.9 | 97.2 | 5.17 | 14.8 | 15.4 | CS(=O)(=O)c1cccc(Nc2nccc(-c3sc(N4CCOCC4)nc3-c3cccc(NS(=O)(=O)c4c(F)cccc4F)c3)n2)c1
3.62 | 6.56 | 1.08 | 17 | 7.07 | 6.87 | 3.79 | COCCNC(=O)c1ccc2c(c1)nc(-c1cnc(-c3ccc(Cl)cc3)[nH]1)n2CCOC
5.71 | 83.8 | 4.26 | 19.2 | 49.5 | 59.1 | 14 | CC(C)(C)c1cc(NC(=O)Nc2ccc(Oc3ccncc3)cc2)no1
